Earlier results on five molecules are cited in patent US12090222B2, “Method for dyeing keratin material, comprising the use of an organosilicon compound, two dyeing compounds and a post-treatment agent” (Henkel AG & Co. KGaA, priority 2020, dated 2024).

The conditions of the data set: 25° C.

As for `O=S(=O)([O-])c1ccc(N=Nc2c(O)ccc3ccccc23)cc1.[Na+]` [Acid Orange 7, sodium salt of 4-[(2-hydroxy-1-naphthyl)azo]benzene sulphonate], the solubility in water entry was “more than 7 g/L”.

With `Nc1cc(S(=O)(=O)[O-])cc2cc(S(=O)(=O)[O-])c(N=Nc3ccccc3)c(O)c12.[Na+].[Na+]` [Acid Red 33, disodium salt of 5-amino-4-hydroxy-3-(phenylazo)-naphthalene-2,7-disulphonate], the solubility in water entry is given as “about 2.5 g/L”. For the molecule `O=C([O-])c1c(Cl)c(Cl)c(Cl)c(Cl)c1-c1c2c(Br)cc(=O)c(Br)c-2oc2c(Br)c(O)cc(Br)c12.O=C([O-])c1c(Cl)c(Cl)c(Cl)c(Cl)c1-c1c2c(Br)cc(=O)c(Br)c-2oc2c(Br)c(O)cc(Br)c12.[Na+].[Na+]` [Acid Red 92, disodium salt of 3,4,5,6-tetrachloro-2-(1,4,5,8-tetrabromo-6-hydroxy-3-oxoxanthen-9-yl)benzoic acid], the solubility in water result is “greater than 10 g/L”. With `O=C([O-])C1=NN(c2ccc(S(=O)(=O)[O-])cc2)C(=O)C1N=Nc1ccc(S(=O)(=O)[O-])cc1.[Na+].[Na+].[Na+]` (centres unmarked) [Acid Yellow 23, trisodium salt of 4,5-dihydro-5-oxo-1-(4-sulfophenyl)-4-((4-sulfophenyl)azo)-1H-pyrazole-3-carboxylic acid], the “solubility in water (in words)” value is recorded as “highly soluble”. Take “mixture of the sodium salts of mono- and disulfonic acids of 2-(2-quinolyl)-1H-indene-1,3(2H)-dione [Acid Yellow 3]”: the solubility in water entry is “about 20 g/L”.
